Results reported in PubChem BioAssay (NCI).
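Interpolation was linear, between the two tested concentrations surrounding the appropriate level; five concentrations were tested over 48 hours in 96-well plates. GI50: concentration for 50% inhibition of growth. TGI marks complete inhibition of growth.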

What was measured:
Test in all cases: NCI anticancer screen, dose series, 48 h; in the data active means GI50 below about 0.43 µM; inactive means the rest
SN12C renal = test system: SN12C renal
NCI-H522 lung = test system: NCI-H522 lung
PC-3 prostate = test system: PC-3 prostate
NCI-H23 lung = test system: NCI-H23 lung
HCT-116 colon = test system: HCT-116 colon
OVCAR-3 ovarian = test system: OVCAR-3 ovarian
UACC-257 melanoma = test system: UACC-257 melanoma
A498 renal = test system: A498 renal
LOX IMVI melanoma = test system: LOX IMVI melanoma
MALME-3M melanoma = test system: MALME-3M melanoma
NCI-H226 lung = test system: NCI-H226 lung
SNB-19 CNS = test system: SNB-19 CNS
IGROV1 ovarian = test system: IGROV1 ovarian
MOLT-4 leukemia = test system: MOLT-4 leukemia
U251 CNS = test system: U251 CNS
T-47D breast = test system: T-47D breast
SNB-75 CNS = test system: SNB-75 CNS
M14 melanoma = test system: M14 melanoma
786-0 renal = test system: 786-0 renal
SF-295 CNS = test system: SF-295 CNS
A549 NSCLC = test system: A549 NSCLC
DU-145 prostate = test system: DU-145 prostate
SK-MEL-5 melanoma = test system: SK-MEL-5 melanoma
HOP-62 NSCLC = test system: HOP-62 NSCLC
K-562 leukemia = test system: K-562 leukemia
CCRF-CEM leukemia = test system: CCRF-CEM leukemia
HOP-92 NSCLC = test system: HOP-92 NSCLC
MDA-MB-435 = test system: MDA-MB-435
SF-268 CNS = test system: SF-268 CNS
SF-539 CNS = test system: SF-539 CNS
NCI/ADR-RES ovarian = test system: NCI/ADR-RES ovarian
UACC-62 melanoma = test system: UACC-62 melanoma
RXF 393 renal = test system: RXF 393 renal
HCT-15 colon = test system: HCT-15 colon
TK-10 renal = test system: TK-10 renal
OVCAR-8 ovarian = test system: OVCAR-8 ovarian
SK-MEL-28 melanoma = test system: SK-MEL-28 melanoma
HL-60(TB) leukemia = test system: HL-60(TB) leukemia
SW-620 colon = test system: SW-620 colon
OVCAR-4 ovarian = test system: OVCAR-4 ovarian
SK-OV-3 ovarian = test system: SK-OV-3 ovarian
NCI-H460 lung = test system: NCI-H460 lung
OVCAR-5 ovarian = test system: OVCAR-5 ovarian
ACHN renal = test system: ACHN renal
SR leukemia = test system: SR leukemia
KM12 colon = test system: KM12 colon
MDA-MB-231 breast = test system: MDA-MB-231 breast
RPMI-8226 leukemia = test system: RPMI-8226 leukemia
CAKI-1 renal = test system: CAKI-1 renal
EKVX NSCLC = test system: EKVX NSCLC
UO-31 renal = test system: UO-31 renal
HCC-2998 colon = test system: HCC-2998 colon
SK-MEL-2 melanoma = test system: SK-MEL-2 melanoma
COLO 205 colon = test system: COLO 205 colon
BT-549 breast = test system: BT-549 breast
MCF7 breast = test system: MCF7 breast
HS 578T breast = test system: HS 578T breast
HT29 colon = test system: HT29 colon

O=C1c2ccccc2C(=O)c2c(N=Nc3[nH]c(=S)[nH]c3O)cccc21
> 21.4 µM: TGI (UO-31 renal)
> 34.5 µM: TGI (NCI-H522 lung)
0.63 µM: TGI (MDA-MB-435)
> 61.6 µM: TGI (HOP-62 NSCLC)
> 75 µM: TGI (CAKI-1 renal)
47.9 µM: TGI (HS 578T breast)
43.3 µM: TGI (BT-549 breast)
2.74 µM: TGI (SF-539 CNS)
active: GI50 (NCI-H522 lung) 0.425 µM | GI50 (OVCAR-3 ovarian) 0.368 µM | GI50 (A498 renal) 0.104 µM | GI50 (SNB-75 CNS) 0.346 µM | GI50 (CCRF-CEM leukemia) 0.384 µM | GI50 (MDA-MB-435) 0.224 µM | GI50 (SF-539 CNS) 0.424 µM | GI50 (MCF7 breast) 0.357 µM
> 42.4 µM: TGI (DU-145 prostate)
1.13 µM: TGI (A498 renal)
inactive: GI50 (SN12C renal) 1.49 µM | GI50 (PC-3 prostate) 0.816 µM | GI50 (NCI-H23 lung) 1.67 µM | GI50 (HCT-116 colon) 0.462 µM | GI50 (UACC-257 melanoma) > 100 µM | GI50 (LOX IMVI melanoma) 0.734 µM | GI50 (MALME-3M melanoma) 0.769 µM | GI50 (NCI-H226 lung) 4.33 µM | GI50 (SNB-19 CNS) 0.997 µM | GI50 (IGROV1 ovarian) 0.968 µM | GI50 (MOLT-4 leukemia) 1.1 µM | GI50 (U251 CNS) 0.676 µM | GI50 (T-47D breast) 1.64 µM | GI50 (M14 melanoma) 0.579 µM | GI50 (786-0 renal) 1.11 µM | GI50 (SF-295 CNS) 0.983 µM | GI50 (A549 NSCLC) 1.75 µM | GI50 (DU-145 prostate) 0.984 µM | GI50 (SK-MEL-5 melanoma) 0.743 µM | GI50 (HOP-62 NSCLC) 1.84 µM | GI50 (K-562 leukemia) 0.434 µM | GI50 (HOP-92 NSCLC) 0.877 µM | GI50 (SF-268 CNS) 1.56 µM | GI50 (NCI/ADR-RES ovarian) 2.45 µM | GI50 (UACC-62 melanoma) 0.604 µM | GI50 (RXF 393 renal) 0.508 µM | GI50 (HCT-15 colon) 0.689 µM | GI50 (TK-10 renal) 5.23 µM | GI50 (OVCAR-8 ovarian) 2.47 µM | GI50 (SK-MEL-28 melanoma) 5.2 µM | GI50 (HL-60(TB) leukemia) 1.13 µM | GI50 (SW-620 colon) 0.496 µM | GI50 (OVCAR-4 ovarian) 2.12 µM | GI50 (SK-OV-3 ovarian) 3.86 µM | GI50 (NCI-H460 lung) 0.849 µM | GI50 (OVCAR-5 ovarian) 4.17 µM | GI50 (ACHN renal) 1.9 µM | GI50 (SR leukemia) 0.472 µM | GI50 (KM12 colon) 0.454 µM | GI50 (MDA-MB-231 breast) 1.3 µM | GI50 (RPMI-8226 leukemia) 1.09 µM | GI50 (CAKI-1 renal) 0.548 µM | GI50 (EKVX NSCLC) 4.71 µM | GI50 (UO-31 renal) 0.792 µM | GI50 (HCC-2998 colon) 3.08 µM | GI50 (SK-MEL-2 melanoma) 1.7 µM | GI50 (COLO 205 colon) 2.41 µM | GI50 (BT-549 breast) 1.12 µM | GI50 (HS 578T breast) 0.462 µM | GI50 (HT29 colon) 2.53 µM
2.96 µM: TGI (SNB-75 CNS)
18.3 µM: TGI (MDA-MB-231 breast)
19.8 µM: TGI (SF-295 CNS)
38.6 µM: TGI (NCI-H23 lung)
> 56.9 µM: TGI (NCI-H226 lung)
56.7 µM: TGI (U251 CNS)
> 28.2 µM: TGI (NCI/ADR-RES ovarian)
3.21 µM: TGI (RXF 393 renal)
> 100 µM: TGI (SN12C renal) | TGI (PC-3 prostate) | TGI (HCT-116 colon) | TGI (UACC-257 melanoma) | TGI (LOX IMVI melanoma) | TGI (MALME-3M melanoma) | TGI (IGROV1 ovarian) | TGI (MOLT-4 leukemia) | TGI (T-47D breast) | TGI (M14 melanoma) | TGI (786-0 renal) | TGI (A549 NSCLC) | TGI (SK-MEL-5 melanoma) | TGI (K-562 leukemia) | TGI (CCRF-CEM leukemia) | TGI (UACC-62 melanoma) | TGI (HCT-15 colon) | TGI (TK-10 renal) | TGI (OVCAR-8 ovarian) | TGI (SK-MEL-28 melanoma) | TGI (HL-60(TB) leukemia) | TGI (SW-620 colon) | TGI (OVCAR-4 ovarian) | TGI (SK-OV-3 ovarian) | TGI (NCI-H460 lung) | TGI (OVCAR-5 ovarian) | TGI (ACHN renal) | TGI (SR leukemia) | TGI (KM12 colon) | TGI (RPMI-8226 leukemia) | TGI (EKVX NSCLC) | TGI (HCC-2998 colon) | TGI (SK-MEL-2 melanoma) | TGI (COLO 205 colon) | TGI (MCF7 breast) | TGI (HT29 colon)
> 57.2 µM: TGI (HOP-92 NSCLC)
> 74.8 µM: TGI (SNB-19 CNS)
98.9 µM: TGI (SF-268 CNS)
